Experimental findings from US8501961B2, “HIV protease inhibitors and methods for using” (priority 2008, dated 2013) are described below.

The target of one assay is HIV-1 protease (Human immunodeficiency virus type 1 group M subtype B (isolate HXB2) (HIV-1), UniProt P04585). Nature of the assay: HIV-1 protease enzyme inhibitory assay (protocol of Toth and Marshall). To be noted: for fold reduction in enzymatic inhibitory potency with respect to 3d: vs 3d; for potency compared to 3i: vs 3i. The class given is biochemical. The source says: In another embodiment, inhibitors described herein contain a (R)-hydroxyethylamine sulfonamide isostere with a p-methoxysulfonamide as the P2′-ligand and various designed cyclic ethers and polyethers as the P2-ligands. In another embodiment, assays are described herein for evaluating compounds. Illustrative inhibitors described herein are initially evaluated in an enzyme inhibitory assay utilizing a protocol described by Toth and Marshall (Toth, M. V.; Marshall, G. R. A simple, continuous fluorometric assay for HIV protease. Int. J. Pep. Protein Res. 1990, 36, 544-550). […]

The next assay deals with HIV-1-LAI. Nature of the assay: Antiviral assay in MT-2 cells, inhibition of HIV-1-elicited cytopathic effect. The note with it: Human immunodeficiency virus 1, T-lymphoid, MT-2 human T-lymphoid cells exposed to HIV-1-LAI. The class given is cell-based. On the technique in general: Damage to the host cells serves as the signal in cytopathic effect assays.
Where [1] appears, read: Table 3, means of at least two experiments.
Setting [2] is: Table 1, mean values of at least four determinations.

Broadly, the Ki is the dissociation constant of the complex between target and ligand, obtained from inhibition or displacement. Lower therefore signals tighter binding. Broadly, the IC50 is the concentration that gives 50% inhibition. A low value points to greater potency.

SMILES strings stand for the structures.

The molecule `COc1ccc(S(=O)(=O)N(CC(C)C)C[C@@H](O)[C@H](Cc2ccccc2)NC(=O)O[C@H]2CC3OCCO[C@@H]3C2)cc1` (stereo partly drawn) [Inhibitor 129, (1′S,2′R)-{1′-Benzyl-2′-hydroxy-3′-[isobutyl(4-methoxybenzenesulfonyl)amino]propyl} carbamic acid (1β,2β,4α)-1,2-(ethylenedioxy)cyclopent-4-yl ester] showed a Ki on HIV-1 protease (setting [1]) of 0.5 ± 0.04 nM.
In turn, `COc1ccc(S(=O)(=O)N(CC(C)C)C[C@@H](O)[C@H](Cc2ccccc2)NC(=O)OC2COCCOCCOCCOC2)cc1` [Inhibitor 3j, (1S,2R)-{1-Benzyl-2-hydroxy-3-[isobutyl(4-methoxybenzenesulfonyl)amino]propyl}carbamic acid 3,6,9,12-tetraoxacyclotridecan-1-yl ester] showed a Ki at HIV-1 protease (setting [2]) of 33 ± 1.9 nM.
For `COc1ccc(S(=O)(=O)N(CC(C)C)C[C@@H](O)[C@H](Cc2ccccc2)NC(=O)O[C@H]2CCCOCOC2)cc1` [Inhibitor 3a, (1S,2R)-{1-Benzyl-2-hydroxy-3-[isobutyl(4-methoxybenzenesulfonyl)amino]propyl}carbamic acid (1S)-3,5-dioxacyclooctan-1-yl ester], the Ki at HIV-1 protease (setting [2]) turned out to be 0.15 ± 0.019 nM.
At HIV-1 protease (setting [2]), `COc1ccc(S(=O)(=O)N(CC(C)C)C[C@@H](O)[C@H](Cc2ccccc2)NC(=O)O[C@H]2CCCOCC2)cc1` [Inhibitor 3f, (1S,2R)-{1-Benzyl-2-hydroxy-3-[isobutyl(4-methoxybenzenesulfonyl)amino]propyl}carbamic acid (S)-oxepan-4-yl ester] came in with an inhibition constant Ki of 0.74 ± 0.15 nM. Moreover, on HIV-1 protease, the “fold reduction in enzymatic inhibitory potency with respect to 3d” value was around 30 fold.
Turning to `COc1ccc(S(=O)(=O)N(CC(C)C)C[C@@H](O)[C@H](Cc2ccccc2)NC(=O)OC2COCCOCOCCOC2)cc1` [Inhibitor 3k, (1S,2R)-{1-Benzyl-2-hydroxy-3-[isobutyl(4-methoxybenzenesulfonyl)amino]propyl}carbamic acid 3,6,8,11-tetraoxacyclododecan-1-yl ester], in the assay on HIV-1-LAI, the half-maximal inhibitory concentration (IC50) is above 1000 nM. Further, the Ki on HIV-1 protease (setting [2]) worked out at 6.3 ± 0.57 nM. Moreover, the “potency compared to 3i” value at HIV-1 protease was “more than 2 fold”. Further, the “fold potency enhancement compared to inhibitor 3j” value on HIV-1 protease (vs 3j) came out at 5 fold.
As to `COc1ccc(S(=O)(=O)N(CC(C)C)C[C@@H](O)[C@H](Cc2ccccc2)NC(=O)O[C@H]2CC3OCO[C@@H]3C2)cc1` (stereo partly drawn) [Inhibitor 126, (1′S,2′R)-{1′-Benzyl-2′-hydroxy-3′-[isobutyl(4-methoxybenzenesulfonyl)amino]propyl} carbamic acid (1β,2β,4α)-1,2-(methylenedioxy)cyclopent-4-yl ester], at HIV-1 protease (setting [1]), the inhibition constant (Ki) was determined as 0.4 ± 0.04 nM. For the same molecule, the “fold less potent than the syn isomer 102” value at HIV-1 protease (vs 102) is given as 3.5 fold.
As for `COc1ccc(S(=O)(=O)N(CC(C)C)C[C@@H](O)[C@H](Cc2ccccc2)NC(=O)OC2CCCCCC2)cc1` [Inhibitor 3g, (1S,2R)-{1-Benzyl-2-hydroxy-3-[isobutyl(4-methoxybenzenesulfonyl)amino]propyl}carbamic acid Cycloheptanyl ester], the inhibitory constant (Ki) at HIV-1 protease (setting [2]) came out at 27 ± 0.81 nM.
In the case of `COc1ccc(S(=O)(=O)N(CC(C)C)C[C@@H](O)[C@H](Cc2ccccc2)NC(=O)OC2COCCS(=O)(=O)CCOC2)cc1` [Inhibitor 3l, (1S,2R)-{1-Benzyl-2-hydroxy-3-[isobutyl(4-methoxybenzenesulfonyl)amino]propyl}carbamic acid 3,9-dioxa-6-thiacyclodecan-1-yl 6,6-dioxide ester], the 50% inhibitory concentration (IC50) in the assay on HIV-1-LAI was above 1000 nM. This molecule gave an inhibition constant (Ki) at HIV-1 protease (setting [2]) of 1.9 ± 0.2 nM. For the same molecule, the “potency compared to 3i” value at HIV-1 protease is reported as 9 fold.
On to `COc1ccc(S(=O)(=O)N(CC(C)C)C[C@@H](O)[C@H](Cc2ccccc2)NC(=O)O[C@@H]2CCCCOC2)cc1` [Inhibitor 3e, (1S,2R)-{1-Benzyl-2-hydroxy-3-[isobutyl(4-methoxybenzenesulfonyl)amino]propyl}carbamic acid (R)-oxepan-3-yl ester], for which the Ki on HIV-1 protease (setting [2]) turned out to be 0.81 ± 0.12 nM. Besides, at HIV-1 protease, the “fold reduction in enzymatic inhibitory potency with respect to 3d” value is around 30 fold.
The molecule `COc1ccc(S(=O)(=O)N(CC(C)C)C[C@@H](O)[C@H](Cc2ccccc2)NC(=O)OC2COCCN(C)CCOC2)cc1` [Inhibitor 3m, (1S,2R)-{1-Benzyl-2-hydroxy-3-[isobutyl(4-methoxybenzenesulfonyl)amino]propyl}carbamic acid N-methyl-1,7-dioxa-4-azocyclodecan-9-yl ester] came in with an IC50 in the assay with HIV-1-LAI above 1000 nM. The molecule further yielded an inhibition constant Ki on HIV-1 protease (setting [2]) of 19 ± 0.76 nM. Moreover, the “potency compared to 3i” value at HIV-1 protease is reported as “no change in inhibitory activity”.
